Measurements as given in paper PMC8745223, “Novel 1,3,5-Triazinyl Aminobenzenesulfonamides Incorporating Aminoalcohol, Aminochalcone and Aminostilbene Structural Motifs as Potent Anti-VRE Agents, and Carbonic Anhydrases I, II, VII, IX, and XII Inhibitors” (International Journal of Molecular Sciences, 2021).
Converted amounts (≈) assume the structure as drawn.

Legend:
hCA IX = biological target: T1, hCA IX (Homo sapiens, UniProt Q16790); test: stopped-flow CO2 hydration assay; type: biochemical
T1 construct: gene CA9; recombinant
In short: (§1)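 Ki was derived by non-linear least squares using the Cheng–Prusoff equation. The underlying data were initial rates of CO2 hydration by recombinant human carbonic anhydrase, measured by stopped-flow for 10–100 s with 0.2 mM phenol red (557 nm), 20 mM Hepes pH 7.5, 20 mM Na2SO4 and 1.7–17 mM CO2, after a 15 min room-temperature preincubation of enzyme with inhibitor. Uncatalysed rates were subtracted, at least six traces were used per rate, and values were averaged over three or more determinations.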

hCA I [1] = biological target: T2, hCA I (Homo sapiens, UniProt P00915); test: stopped-flow CO2 hydration assay; type: biochemical
T2 construct: gene CA1; recombinant
T2 sequence (P00915 2-261): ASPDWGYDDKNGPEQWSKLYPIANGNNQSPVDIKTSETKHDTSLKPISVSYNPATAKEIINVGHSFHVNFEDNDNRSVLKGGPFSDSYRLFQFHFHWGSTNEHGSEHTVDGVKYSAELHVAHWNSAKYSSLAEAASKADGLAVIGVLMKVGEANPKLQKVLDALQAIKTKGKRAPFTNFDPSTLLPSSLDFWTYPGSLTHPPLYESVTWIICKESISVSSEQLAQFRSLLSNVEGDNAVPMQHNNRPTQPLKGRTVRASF
In short: as §1

hCA II = biological target: T3, hCA II (Homo sapiens, UniProt P00918); test: stopped-flow CO2 hydration assay; type: biochemical
T3 construct: gene CA2; recombinant
In short: as §1

hCA VII = biological target: T4, hCA VII (Homo sapiens, UniProt P43166); test: stopped-flow CO2 hydration assay; type: biochemical
T4 construct: gene CA7; recombinant
T4 sequence (P43166 whole entry): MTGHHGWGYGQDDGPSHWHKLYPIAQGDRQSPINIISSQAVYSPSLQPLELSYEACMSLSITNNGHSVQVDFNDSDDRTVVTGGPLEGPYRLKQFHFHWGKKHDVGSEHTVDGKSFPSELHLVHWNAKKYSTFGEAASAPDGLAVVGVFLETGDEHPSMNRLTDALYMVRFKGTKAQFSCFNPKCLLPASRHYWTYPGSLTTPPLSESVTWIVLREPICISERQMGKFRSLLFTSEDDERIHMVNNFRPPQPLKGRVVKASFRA
In short: as §1

[2] = system: T5, E. faecalis ATCC 29212 (EF); test: microbe, parasite or virus in culture; parameters: broth microdilution MIC in BHI, Alamar Blue read-out, 37 °C; details: Enterococcus faecalis, ATCC29212, 24 h
T5 construct: ATCC 29212
Experimental: (§2) The inhibition activity against enterococci was evaluated by the microtitration broth method according to the Clinical and Laboratory Standards Institute with some modifications. The compounds were dissolved in DMSO and serially diluted in Brain Hearth Infusion (BHI) to reach concentrations 256–2 µg/mL. […] The experiment was repeated at least three times. All the investigated compounds were tested on their anti-staphylococcal activity against three clinical isolates of methicillin-resistant Staphylococcus aureus (MRSA) and S. aureus ATCC 29213 as the reference and quality control strain.

[3] = system: T6, Enterococcus faecalis VRE 368; test: organism not typed; parameters: broth microdilution MIC in BHI, Alamar Blue read-out, 37 °C; details: 24 h
T6 construct: VRE 368 (vanA clinical isolate)
Experimental: as §2

[4] = system: T7, Enterococcus faecalis VRE 342 B; test: organism not typed; parameters: broth microdilution MIC in BHI, Alamar Blue read-out, 37 °C; details: 24 h
T7 construct: VRE 342 B (vanA clinical isolate)
Experimental: as §2

[5] = system: T8, Enterococcus faecalis VRE 725 B; test: organism not typed; parameters: broth microdilution MIC in BHI, Alamar Blue read-out, 37 °C; details: 24 h
T8 construct: VRE 725B (vanA clinical isolate)
Experimental: as §2, with “strain. […] All the compounds were tested against Enterococcus faecalis ATCC 29212 as the reference strain and three isolates from American crows of vanA-carrying vancomycin-resistant E. faecalis (VRE), and the activities, expressed as minimum inhibitory concentrations (MICs), are listed in Table 3.” for “strain.”

hCA I [6] = biological target: T2, hCA I; test: biochemical; parameters: stopped-flow CO2 hydration assay, phenol red indicator 557 nm, recombinant human CA, 15 min preincubation
Experimental: AnSX.18MV-R Applied Photophysics stopped-flow instrument (Applied Photophysics, Leatherhead, UK) has been used for assaying the CA catalyzed CO2 hydration activity. Phenol red (at a concentration of 0.2 mM) has been used as an indicator, working at the absorbance maximum of 557 nm, with 20 mM Hepes (pH 7.5) as a buffer and 20 mM Na2SO4 (for maintaining constant the ionic strength), following the CA-catalyzed CO2 hydration reaction for a period of 10–100 s. The CO2 concentrations ranged from 1.7 to 17 mM for the determination of the kinetic parameters and inhibition constants. For each inhibitor, at least six traces of the initial 5–10% of the reaction were used for determining the initial velocity. The uncatalyzed rates were determined in the same manner and were subtracted from the total observed rates. Stock solutions of the inhibitor (0.1 mM) were prepared in distilled-deionized water, and dilutions up to 0.005 nM were done thereafter with the assay buffer. Inhibitor and enzyme solutions were preincubated together for 15 min at room temperature prior to assay in order to allow for the formation of the E–I complex. The inhibition constants were obtained by non-linear least-squares methods using PRISM 3 and the ChengPrusoff equation, as reported earlier, and represent the mean from at least three different determinations. All CA isoforms were recombinant ones and were prepared as reported earlier. Errors in the range of 5–10% of the reported value (Mean from three different assays, by stopped-flow technique). The presence of aminobenzenesulfonamide structural moiety in the structure of target compounds 1–44 can cause inhibition activity in these compounds against human carbonic anhydrases. The inhibition of physiologically relevant hCA I and hCA II can lead to various undesirable side effects. […] Compounds 1–44 were evaluated as potential inhibitors of hCA I, hCA II, hCA VII, hCA IX, and hCA XII. The inhibition activities against individual hCAs were determined by methodology based on stopped-flow assay. […]

hCA XII = biological target: T9, hCA XII (Homo sapiens, UniProt O43570); test: stopped-flow CO2 hydration assay; type: biochemical
T9 construct: gene CA12; recombinant
T9 sequence (O43570 25-354): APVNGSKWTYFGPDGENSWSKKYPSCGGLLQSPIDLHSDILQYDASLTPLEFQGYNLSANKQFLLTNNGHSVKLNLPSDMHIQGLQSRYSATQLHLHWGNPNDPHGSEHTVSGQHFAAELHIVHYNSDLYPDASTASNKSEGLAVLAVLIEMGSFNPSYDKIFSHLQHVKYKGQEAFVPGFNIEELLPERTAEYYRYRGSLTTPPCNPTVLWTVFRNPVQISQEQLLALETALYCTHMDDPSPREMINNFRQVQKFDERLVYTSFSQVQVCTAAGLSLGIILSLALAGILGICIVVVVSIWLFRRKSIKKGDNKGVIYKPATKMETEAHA
In short: as §1

Row | Structure (SMILES) | Ki (hCA IX) | Ki (hCA I [1]) | Ki (hCA II) | Ki (hCA VII) | MIC [2] | MIC [3] | MIC [4] | MIC [5] | Ki (hCA I [6]) | Ki (hCA XII)
1 | NS(=O)(=O)c1ccc(Nc2nc(Cl)nc(NCCCO)n2)cc1 [compound 1, 1] | 229 nM | 26.8 nM | 44.8 nM | 128 nM | – | – | – | – | – | –
2 | NS(=O)(=O)c1ccc(CNc2nc(NCCCO)nc(Nc3ccc(C(=O)/C=C/c4ccccc4)cc3)n2)cc1 [compound 13, 13] | 4630 nM | 1960 nM | 277 nM | 95.7 nM | 228 µM (≈ 128 µg/mL) | 114 µM (≈ 63.8 µg/mL) | 228 µM (≈ 128 µg/mL) | 228 µM (≈ 128 µg/mL) | – | –
3 | NS(=O)(=O)c1ccc(CNc2nc(NCCCO)nc(Nc3ccc(C(=O)/C=C/c4ccccc4O)cc3)n2)cc1 [compound 14, 14] | 623 nM | 5400 nM | 35.4 nM | 180 nM | 111 µM (≈ 63.9 µg/mL) | 111 µM (≈ 63.9 µg/mL) | 111 µM (≈ 63.9 µg/mL) | > 444 µM | – | –
4 | NS(=O)(=O)c1ccc(CNc2nc(NCCCO)nc(Nc3ccc(C(=O)/C=C/c4ccc(O)cc4)cc3)n2)cc1 [compound 16, (E)-4-[({4-({4-[3-(4-Hydroxyphenyl)acryloyl]phenyl}amino)-6-[(3-hydroxypropyl)amino]-1,3,5-triazin-2-yl}amino)methyl]benzenesulfonamide] | 161 nM | 800 nM | 36 nM | 201 nM | > 444 µM | > 444 µM | > 444 µM | > 444 µM | – | –
5 | NS(=O)(=O)c1ccc(CCNc2nc(Cl)nc(NCC(O)CO)n2)cc1 (stereo not drawn) [compound 19, 19] | – | – | – | 40.7 nM | > 635 µM | > 635 µM | > 635 µM | > 635 µM | – | –
6 | NS(=O)(=O)c1ccc(CCNc2nc(NCCCO)nc(Nc3ccc(C(=O)/C=C/c4ccccc4O)cc3)n2)cc1 [compound 22, 22] | > 10000 nM | 7700 nM | 939 nM | 283 nM | 108 µM (≈ 63.7 µg/mL) | 108 µM (≈ 63.7 µg/mL) | 108 µM (≈ 63.7 µg/mL) | 108 µM (≈ 63.7 µg/mL) | – | –
7 | NS(=O)(=O)c1ccc(CCNc2nc(Nc3ccc(O)cc3)nc(Nc3ccc(C(=O)/C=C/c4ccccc4O)cc3)n2)cc1 [compound 24, 24] | 227 nM | 5010 nM | 63.8 nM | 281 nM | 51.3 µM (≈ 32 µg/mL) | 51.3 µM (≈ 32 µg/mL) | 51.3 µM (≈ 32 µg/mL) | 102 µM (≈ 63.6 µg/mL) | – | –
8 | NS(=O)(=O)c1ccc(CCNc2nc(NCCCO)nc(Nc3ccc(C(=O)/C=C/c4cccc(O)c4)cc3)n2)cc1 [compound 25, (E)-4-[2-({4-({4-[3-(3-Hydroxyphenyl)acryloyl]phenyl}amino)-6-[(3-hydroxypropyl)amino]-1,3,5-triazin-2-yl}amino)ethyl]benzenesulfonamide] | > 10000 nM | 7490 nM | 4130 nM | 186 nM | 27.1 µM (≈ 16 µg/mL) | 27.1 µM (≈ 16 µg/mL) | 27.1 µM (≈ 16 µg/mL) | 108 µM (≈ 63.7 µg/mL) | – | –
9 | NS(=O)(=O)c1ccc(CCNc2nc(Nc3ccc(O)cc3)nc(Nc3ccc(C(=O)/C=C/c4cccc(O)c4)cc3)n2)cc1 [compound 26, (E)-4-[2-({4-({4-[3-(3-Hydroxyphenyl)acryloyl]phenyl}amino)-6-[(4-hydroxyphenyl)amino]-1,3,5-triazin-2-yl}amino)ethyl]benzenesulfonamide] | > 10000 nM | 6630 nM | 1340 nM | 42.1 nM | 51.3 µM (≈ 32 µg/mL) | 25.6 µM (≈ 16 µg/mL) | 51.3 µM (≈ 32 µg/mL) | 51.3 µM (≈ 32 µg/mL) | – | –
10 | NS(=O)(=O)c1ccc(CCNc2nc(NCCCO)nc(Nc3ccc(C(=O)/C=C/c4ccc(O)cc4)cc3)n2)cc1 [compound 27, (E)-4-[2-({4-({4-[3-(4-Hydroxyphenyl)akryloyl]phenyl}amino)-6-[(3-hydroxypropyl)amino]-1,3,5-triazin-2-yl}amino)ethyl]benzenesulfonamide] | > 10000 nM | 8960 nM | 28.8 nM | 459 nM | > 434 µM | > 434 µM | > 434 µM | 434 µM (≈ 256 µg/mL) | – | –
11 | NS(=O)(=O)c1ccc(CCNc2nc(Nc3ccc(O)cc3)nc(Nc3ccc(C(=O)/C=C/c4ccc(O)cc4)cc3)n2)cc1 [compound 29, (E)-4-[2-({4-({4-[3-(4-Hydroxyphenyl)acryloyl]phenyl}amino)-6-[(4-hydroxyphenyl)amino]-1,3,5-triazin-2-yl}amino)ethyl]benzenesulfonamide] | > 10000 nM | 5810 nM | 730 nM | 88.6 nM | 25.6 µM (≈ 16 µg/mL) | 102 µM (≈ 63.6 µg/mL) | 25.6 µM (≈ 16 µg/mL) | 51.3 µM (≈ 32 µg/mL) | – | –
12 | NS(=O)(=O)c1ccc(CCNc2nc(NCCc3ccc(S(N)(=O)=O)cc3)nc(Nc3ccc(/C=C/c4cccc(O)c4)cc3)n2)cc1 [compound 41, (E)-4,4’-{[(6-{[4-(3-Hydroxystyryl)phenyl]amino}-1,3,5-triazin-2,4-diyl)bis(azandiyl)]bis(ethan-2,1-diyl)} benzenesulfonamide] | 31.1 nM | – | 41.4 nM | – | 372 µM (≈ 255 µg/mL) | > 372 µM | > 372 µM | > 372 µM | 608 nM | 62.2 nM
13 | NS(=O)(=O)c1ccc(CCNc2nc(Nc3ccc(O)cc3)nc(Nc3ccc(/C=C/c4ccc(O)cc4)cc3)n2)cc1 [compound 43, 43] | 25.7 nM | – | 4840 nM | – | 429 µM (≈ 256 µg/mL) | > 429 µM | > 429 µM | > 429 µM | 4060 nM | 702 nM
14 | NS(=O)(=O)c1ccc(CCNc2nc(NCc3ccc(S(N)(=O)=O)cc3)nc(Nc3ccc(/C=C/c4ccc(O)cc4)cc3)n2)cc1 [compound 44, (E)-4-{2-[(4-{[4-(4-Hydroxystyryl)phenyl]amino}-6-[(4-sulfamoylbenzyl)amino]-1,3,5-triazin-2-yl)amino]ethyl}benzenesulfonamide] | 249 nM | – | 252 nM | – | 380 µM (≈ 256 µg/mL) | > 380 µM | 190 µM (≈ 128 µg/mL) | 380 µM (≈ 256 µg/mL) | 859 nM | 10 nM
